The target of data set [1] is T1, SERCA, cardiac SR.
T1 construct: 2 mg or 7 mg of SR vesicles (optimized for skeletal or cardiac SR, respectively); from tissue; host or cells: cardiac sarcoplasmic reticulum vesicles
The experiment in a line: Activation of SERCA, NADH-linked enzyme-coupled ATPase assay, cardiac SR. It counts as biochemical. The settings on record: read-out: CSR EC50.
Protocol: Test compounds were characterized over a range of concentrations using an NADH-linked, enzyme-coupled ATPase assay. Each well contained 2 mg or 7 mg of SR vesicles (optimized for skeletal or cardiac SR, respectively), 50 mM MOPS (pH 7.0), 100 mM KCl, 5 mM MgCl2, 1 mM EGTA, 0.2 mM NADH, 1 mM phosphoenol pyruvate, 5 IU pyruvate kinase, 5 IU lactate dehydrogenase, and 3.5 mg/mL A23187 (a calcium ionophore), and CaCl2 was added to set free [Ca2+] to the specific values. The assay was started upon addition of ATP at a final concentration of 5 mM, and read in a SpectraMax Plus microplate spectrophotometer and the ATPase activities were fitted using the Hill function.

For data set [2], the system named is SERCA. The data set can be described thus: Ca-ATPase assay, microsomal preparations from HEK 293 cells. The class given is biochemical, human. On the procedure: A Ca-ATPase assay was performed using microsomal preparations from HEK 293 cells at a series of calcium concentrations corresponding to the physiological range, relative to controls. The ATP hydrolysis rate was measured over a range of calcium concentrations in the presence of test compounds using an NADH-linked, enzyme-coupled ATPase assay adapted for 96-well microplates, with Vmax determined by fitting the ATPase calcium-dependence to the Hill function. […] CaCl2 was added to set free [Ca^2+] to the specific values.

A short description of data set [3]: Pharmacokinetics in Beagle dogs (Table 5). The class given is in vivo. The settings on record: dog, PO (10 mg/kg) vs IV (1 mg/kg), based on AUC0-t. The protocol:
For pharmacokinetic evaluation, 3 male Beagle dogs were intravenously (IV) dosed (1 mg/kg body weight) and 3 male Beagle dogs were orally (PO) dosed (10 mg/kg body weight) with a test compound. Blood (approximately 1.0 mL) was collected via femoral vein into tubes containing K3EDTA anticoagulant at 0, 0.017, 0.083, 0.5, 1, 2, 4, 6, 8, and 24 hours post-dosing. Plasma samples were analyzed by LC-MS/MS. The analytical results were confirmed using quality control samples for intra-assay variation. The accuracy of >66% of the quality control samples was between 80-120% of the known value(s). A standard set of pharmacokinetic parameters were generated from concentration data including Area Under the Curve (AUC0-t and AUC0-inf), elimination half-lives, clearances, volume of distribution and bioavailabilities (based on AUC0-t), maximum plasma concentration (C0; Cmax), and time to reach maximum plasma concentration (Tmax).

The subject of data set [4] is 6-OHDA lesioned Wistar rats. The experiment in a line: Rat unilateral 6-OHDA model of Parkinson's disease, stepping test. The settings on record: D11, 10 mg/kg IP once daily for 15 days, t test. The class given is in vivo. The protocol: Fifty adult male Wistar rats were used. The rats from different groups (G1 to G5) were randomized. At the beginning of the study, the rats were about 5 weeks old and naive to previous administration of any drug.
A stereotaxic injection of 6-OHDA (G2 to G5) or saline (G1: sham group) was performed to induce a unilateral dopaminergic lesion on day 0 (D0). Surgery was performed on D0 under ketamine (50 mg/kg) and xylazine (10 mg/kg). The rats of G2 to G5 received a unilateral injection of 6-OHDA (6 μL) in the left substantia nigra pars compacta. Jouve et al., J. Neurosci. 2010, 30, 9919-9928. The rats of the G1 sham group were injected with saline. During surgery, local analgesia was achieved using subcutaneous injections of lidocaine. At the end of surgery, the rats were treated with buprenorphine (0.05 mg/kg, S.C.).
The stepping test was performed after IT test, both before the 6-OHDA lesion induction on D0 and on D11. Around D−6, the stepping test was performed eight consecutive times for the right paw of each animal to obtain baseline values. On D11, the stepping test was performed one hour after the rats were dosed. Each rat was hold by an experimenter and only one of the two forelimbs was left free to move above a plane surface and the other was held with the paw touching the table. The rats were then to be moved slowly forward by the experimenter. The number of adjusting steps was countered for the right paw. Olsson et al., J. Neurosci. 1995, 15, 3863-3875.
L-DOPA and benserazide (a peripheric DOPA decarboxylase inhibitor) were prepared together as a single solution containing 0.9% NaCl and 0.1% ascorbic acid.
All the dosings were given via the IP route, once daily, Sunday excluded.

Data set [5] has as its system CSM14.1 cells. The data set can be described thus: ER stress cell survival assay (thapsigargin, […]-GLO). Conditions: dose-response. It counts as cell-based. On the procedure:
CSM14.1 cells were maintained in Complete Medium at 32° C.; wherein the Complete Medium contained Dulbecco's modified eagle medium (DMEM) with 10% fetal bovine serum (FSB), 1% L-glutamine, 100 IU/mL penicillin, and 100 μg/mL streptomycin. The cells were recovered from cultures by trypsinization and then seeded in 384 well plates (Greiner #781098) at a concentration of 1,000 cells/well in 20 μL of DMEM Assay Medium, wherein the DMEM Assay Medium contained 2% FBS, 100 IU/mL penicillin, and 100 μg/mL streptomycin. Seeding was performed using a MultiDrop Combi reagent broadcaster. The plates were incubated overnight at 32° C.
A test compound was prepared by 2-fold serial dilution in 100% DMSO using a BIOMEK® 2000 liquid handler (Beckman Coulter). A dose-response curve containing 10 concentrations of the test compound was obtained. Using a BIOMEK® FX liquid handler (Beckman Coulter), 2.5 μL of the test compound was transferred from the 100% DMSO serial dilution plate to an intermediate plate containing 47.5 μL of DMEM Assay Medium containing 2% FBS, 100 IU/mL penicillin, and 100 μg/mL streptomycin and mixed. To reduce or eliminate the interference from the compound's precipitation, 6 μL of the diluted compound was immediately transferred to the assay plate to achieve a high compound concentration of 100 μM in 99% DMEM Assay Medium and 1% DMSO. After the assay plates were incubated for 2 hrs, 4 μL of 112.5 μM thapsigargin (TG) (DMSO stock diluted into Assay TC Medium) was dispensed into each testing well with a MultiDrop Combi reagent broadcaster for a final concentration of about 15 μM TG. The tissue culture media (4 μL) containing vehicle only was transferred manually to each control cell using a 16 channel electronic pipette. […] High luminescence indicates cell survival.
Alternatively, a test compound was tested at a single compound concentration (e.g., 2 μM) to determine the effect of the compound on cell survival in comparison with vehicle.

Data set [6] in a line: Pharmacokinetics in Sprague Dawley rats (Table 4). It counts as in vivo. Conditions: rat; for AUC(0-inf) / AUC(0-t) / Cmax / Tmax / clearance / half-life / MRT inf / Vd: Sprague Dawley, in vivo; for MRT inf: read-out: MRT0-∞; for Vd: read-out: Vz; for F: PO (10 mg/kg) vs IV (2 mg/kg). The source says: Compound D1 was formulated in 0.3% DMA/1% SOLUTOL®/98.7% saline. Compound D6 was formulated in 0.5% DMA/1% SOLUTOL®/94.5% 0.01N HCl in saline/4% NaOH (pH 4-5).

For data set [7], the system named is SERCA. The experiment in a line: Activation of SERCA, increase in Vmax (SR type not given). The class given is biochemical.
Data set [8] relates to BT474 Cells. The data set can be described thus: In vitro anticancer activity, monolayers (2D) and spheroids (3D), BT474. The class given is cell-based. Conditions: Homo sapiens. The protocol: (§1) The anticancer activity of a test compound was determined in vitro using mammalian tumor cells that grew as monolayers and spheroids. Spheroids represent the three-dimensional growth and organization of solid tumors, and thus are an intermediate model between monolayers of cells in culture and tumors in vivo. The cancer cell line tested was a breast cancer cell line, BT474. Normal breast tissue cells (MCF10A) were used as a control. The viability/proliferation of the cells were measured using […]-GLO® reagent.

The test system of data set [9] is MCF10A Cells. The experiment in a line: In vitro viability, monolayers (2D) and spheroids (3D), normal breast tissue cells. The class given is cell-based. Conditions: Homo sapiens, MCF-10A. The protocol: as §1

The structures appear in SMILES notation. Like-named read-outs stand apart in the source and are kept apart here. Where only a bound is given, the exact number is not on record here.

Data on 14 compounds can be found in patent US20170281611A1, “QUINOLINES AND THEIR USE FOR TREATING ENDOPLASMIC RETICULUM STRESS-CAUSED DISEASES” (EIGER BIOPHARMACEUTICALS, INC., priority 2014, published 2017).

T1 sequence (P16615 1-997 isoform P16615-2): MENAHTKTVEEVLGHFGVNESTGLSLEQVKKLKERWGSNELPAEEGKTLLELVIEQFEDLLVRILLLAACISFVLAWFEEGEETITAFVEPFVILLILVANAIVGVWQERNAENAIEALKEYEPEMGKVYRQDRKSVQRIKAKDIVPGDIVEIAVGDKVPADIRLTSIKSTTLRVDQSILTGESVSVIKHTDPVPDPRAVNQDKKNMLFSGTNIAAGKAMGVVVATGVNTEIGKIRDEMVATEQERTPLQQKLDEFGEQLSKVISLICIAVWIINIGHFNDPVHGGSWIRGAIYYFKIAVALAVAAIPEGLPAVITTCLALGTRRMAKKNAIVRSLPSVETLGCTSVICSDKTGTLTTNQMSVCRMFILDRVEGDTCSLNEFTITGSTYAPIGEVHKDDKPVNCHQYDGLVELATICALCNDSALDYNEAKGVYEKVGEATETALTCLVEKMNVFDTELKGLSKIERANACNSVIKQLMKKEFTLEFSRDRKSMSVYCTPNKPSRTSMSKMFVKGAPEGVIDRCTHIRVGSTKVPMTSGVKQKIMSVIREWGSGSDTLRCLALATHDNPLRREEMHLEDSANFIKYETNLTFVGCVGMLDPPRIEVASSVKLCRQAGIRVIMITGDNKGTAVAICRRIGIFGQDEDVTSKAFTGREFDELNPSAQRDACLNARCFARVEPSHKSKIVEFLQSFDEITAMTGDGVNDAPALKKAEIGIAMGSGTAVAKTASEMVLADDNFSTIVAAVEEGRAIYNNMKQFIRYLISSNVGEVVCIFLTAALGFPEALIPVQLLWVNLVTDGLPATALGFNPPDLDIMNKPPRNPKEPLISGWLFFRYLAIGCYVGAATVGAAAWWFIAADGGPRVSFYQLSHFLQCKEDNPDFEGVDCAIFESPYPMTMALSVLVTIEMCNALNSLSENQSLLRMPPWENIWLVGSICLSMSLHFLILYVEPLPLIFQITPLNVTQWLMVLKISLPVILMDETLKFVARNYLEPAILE

On to `Cc1ccc2cccc(NC(=O)c3ccc(C(C)(C)C)cc3)c2n1` [Compound A4, 4-(tert-Butyl)-N-(2-methylquinolin-8-yl)benzamide], for which the EC50 in [1] was less than 20 µM.

For the compound `O=C(Nc1cccc2cccnc12)c1cccc(F)c1` [Compound A7, 3-Fluoro-N-(quinolin-8-yl)benzamide], the EC50 in [1] was less than 20 µM.

As to `CC(C)Oc1ccc(C(=O)Nc2cccc3cccnc23)cc1` [Compound A11, 4-Isopropoxy-N-(quinolin-8-yl)benzamide], in data set [1], the EC50 was less than 20 µM.

In the case of `Cc1ccc2cccc(NC(=O)c3cccc(OC(C)C)c3)c2n1` [Compound A13, 3-Isopropoxy-N-(2-methylquinolin-8-yl)benzamide], the “Vmax of a SERCA” value in data set [2] was “significantly increased”. In data set [3], this compound registered an F of 1.4%.

On to `Cc1ccc2cccc(NC(=O)c3ccc(Br)s3)c2n1` [Compound B1, 5-Bromo-N-(2-methylquinolin-8-yl)thiophene-2-carboxamide], for which the “number of adjusting steps” value in [4] is “statistically significant increase”.

For `O=C(c1ccccc1)N1CCN(c2ccnc3cc(Cl)ccc23)CC1` [Compound D1, (4-(7-Chloroquinolin-4-yl)piperazin-1-yl)(phenyl)methanone], the EC50 in [5] is 20 to 100 µM. Besides, in data set [6] (IV (2 mg/kg)), the AUC(0-inf) was 5900 ± 454 ng·h/mL, the AUC(0-t) is 5880 ± 453 ng·h/mL, the Cmax was found to be 18.6 ± 1.33 µM and the Tmax came to 1.2 min. Besides, in data set [6] (IV (2 mg/kg)), the clearance was 5.67 mL/min/kg, the half-life was 193 ± 23.4 min, the MRT inf was 2.98 ± 0.17 h and the Vd was determined as 1.57 ± 0.2 L/kg. Moreover, in data set [6] (PO (10 mg/kg)), the AUC(0-inf) amounted to 162000 ± 11900 ng·h/mL, the AUC(0-t) turned out to be 24600 ± 4100 ng·h/mL, the highest level (Cmax) was 15.3 ± 3.86 µM and the Tmax was determined as 34.8 ± 22.8 min. In addition, in data set [6] (PO (10 mg/kg)), the half-life was 166 ± 41.4 min and the MRT inf came out at 3.93 ± 0.41 h. The compound also registered a F in data set [6] of 84%.

In turn, `O=C(c1ccccc1F)N1CCN(c2ccnc3cc(Cl)ccc23)CC1` [Compound D2, (4-(7-Chloroquinolin-4-yl)piperazin-1-yl)(2-fluorophenyl)methanone] registered an EC50 in data set [5] of less than 20 µM. Moreover, in data set [6] (IV (2 mg/kg)), the AUC(0-inf) was determined as 1840 ± 209 ng·h/mL, the AUC(0-t) came to 1790 ± 187 ng·h/mL, the Cmax turned out to be 7.59 ± 0.55 µM and the Tmax worked out at 1.02 min. Moreover, in data set [6] (IV (2 mg/kg)), the clearance is 18.3 mL/min/kg, the half-life was 106 ± 19.8 min, the MRT inf amounted to 1.57 ± 0.22 h and the Vd turned out to be 2.76 ± 0.22 L/kg. In addition, in data set [6] (PO (10 mg/kg)), the AUC(0-inf) worked out at 8060 ± 3220 ng·h/mL, the AUC(0-t) was 7890 ± 3320 ng·h/mL, the peak level (Cmax) was 7.33 ± 12.5 µM and the Tmax came to 25.2 ± 8.4 min. In addition, in data set [6] (PO (10 mg/kg)), the half-life was 106 ± 39.6 min and the MRT inf came to 2.88 ± 1.21 h. The F in [6] was determined as 88%.

Take `O=C(c1cccc(Cl)c1)N1CCN(c2ccnc3cc(Cl)ccc23)CC1` [Compound D3, (3-Chlorophenyl)(4-(7-chloroquinolin-4-yl)piperazin-1-yl)methanone]: the EC50 in data set [5] lay in the range of 20 to 100 µM.

In data set [5], `Cc1ccc(C(=O)N2CCN(c3ccnc4cc(Cl)ccc34)CC2)cc1` [Compound D4, (4-(7-Chloroquinolin-4-yl)piperazin-1-yl)(p-tolyl)methanone] displayed a concentration giving a half-maximal response (EC50) of 20 to 100 µM.

Take `Cc1ccc(C(=O)N2CCN(c3ccnc4cc(Cl)ccc34)CC2)cc1Cl` [Compound D5, (3-Chloro-4-methylphenyl)(4-(7-chloroquinolin-4-yl)piperazin-1-yl)methanone]: in [5], the EC50 was less than 20 µM.

Consider `O=C(C1CC1)N1CCN(c2ccnc3cc(Cl)ccc23)CC1` [Compound D7], for which the EC50 in data set [5] was less than 20 µM.

`CCNc1ccc(C(=O)Nc2cccc3ccc(C)nc23)cc1` [Compound J1, 4-(Ethylamino)-N-(2-methylquinolin-8-yl)benzamide] registered an EC50 in [5] of less than 20 µM. Moreover, the “Increase in Vmax at 10 μM” value in [7] is recorded as “A′ (A′ represents an increase greater than 50%)”.

In turn, `Cc1ccc2cccc(NC(=O)c3ccc(O)cc3)c2n1` [Compound J2, 4-Hydroxy-N-(2-methylquinolin-8-yl)benzamide] came in with a 50% effective concentration (EC50) in data set [5] of less than 20 µM. The “Increase in Vmax at 10 μM” value in data set [7] is reported as “A′ (A′ represents an increase greater than 50%)”.

For `CCN(CC)CCNC(=O)c1c(C)[nH]c(/C=C2\C(=O)Nc3ccc(F)cc32)c1C` [Sutent, reference compound], the IC50 in data set [8] (BT-474, monolayers (2D), read-out: IC50 (2D)) was 10 µM; in data set [8] (BT-474, spheroids (3D), read-out: IC50 (3D)), 10 µM; in data set [9] (monolayers (2D), read-out: IC50 (2D)) it was 3 µM; in [9] (spheroids (3D), read-out: IC50 (3D)), 7 µM.

The EC50 is the midpoint of the concentration-response curve. As a reminder, the AUC(0-inf) is total exposure, with the tail of the curve extrapolated. One may read the AUC(0-t) as exposure summed from dosing to a finite time, without extrapolation to infinity. Usually Cmax stands for the peak of the concentration-time curve. Broadly, the Tmax is the time at which the peak concentration occurs. For orientation: clearance means the volume of plasma or blood freed of the substance per unit of time. Read a high clearance as a high capacity for elimination. As a reminder, the half-life is the time needed for the level to fall by half in the phase considered. As usually defined, the IC50 is the concentration that inhibits the measured activity by half.
